Legend:
[1] = target: T1, His6-tagged hSEP ectodomain (Homo sapiens, UniProt Q495T6); assay: In vitro investigation of the hSEP-inhibitory action (fluorescence-quenched Big-ET-1 analogue, HPLC); format: biochemical
T1 construct: His6-tagged hSEP ectodomain; His6; purchased Innogenetics, Ghent, Belgium
T1 sequence (Q495T6 49-779 limits assumed): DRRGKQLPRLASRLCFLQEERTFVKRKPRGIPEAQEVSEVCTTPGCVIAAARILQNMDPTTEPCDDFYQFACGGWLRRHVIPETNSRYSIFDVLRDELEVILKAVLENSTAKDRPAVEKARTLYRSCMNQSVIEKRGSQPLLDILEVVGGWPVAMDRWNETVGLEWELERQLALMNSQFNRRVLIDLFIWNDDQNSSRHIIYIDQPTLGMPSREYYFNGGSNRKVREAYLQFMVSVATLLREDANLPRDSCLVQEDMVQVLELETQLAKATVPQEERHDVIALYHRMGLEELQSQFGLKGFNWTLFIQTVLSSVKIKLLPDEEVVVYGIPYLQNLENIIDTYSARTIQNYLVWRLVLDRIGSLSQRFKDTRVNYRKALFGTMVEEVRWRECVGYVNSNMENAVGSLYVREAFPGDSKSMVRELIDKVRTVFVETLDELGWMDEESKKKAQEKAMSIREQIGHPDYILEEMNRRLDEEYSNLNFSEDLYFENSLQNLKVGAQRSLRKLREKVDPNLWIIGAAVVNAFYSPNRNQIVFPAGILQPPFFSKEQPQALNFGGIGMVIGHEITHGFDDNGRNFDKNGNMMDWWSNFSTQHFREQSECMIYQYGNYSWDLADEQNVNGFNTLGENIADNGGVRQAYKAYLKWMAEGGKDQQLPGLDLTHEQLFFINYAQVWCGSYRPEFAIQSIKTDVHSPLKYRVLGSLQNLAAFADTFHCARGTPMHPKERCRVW
Protocol: 2. In Vitro Investigation of the hSEP-Inhibitory Action of the Substances
In this test, the measure of the inhibitory activity of the substances which was determined was their IC50 value. The IC50 value of a test substance having enzyme-inhibitory activity is that concentration of the test substance at which 50% of the enzymatic activity of the hSEP is blocked.
The test and the HPLC procedure were carried out analogously to the manner set forth above for determining the in vitro inhibitory action of the test substances on NEP. 10 nM phosphoramidon served as standard inhibitor in the HPLC procedure. In this test model the test substances of Formula I listed in the following Table 2 had the IC50 values given below: […]

[2] = system: maximal SAP response to Big-ET; assay: In vivo i.v. potency (ID50) to inhibit maximal SAP response to Big-ET in anesthetized rats; set-up: species or system Rats (Sprague-Dawley); details: Rattus norvegicus, iv, dose at which the pressor effect of Big-ET was suppressed by 50%
Protocol: Rats (Sprague-Dawley, CRLD=Charles River) were anaesthetised with 1 ml/kg Rompun/Ketavet 1:1. A pressure transducer (Statham) was inserted into the carotid artery to measure blood pressure.
For intravenous testing, one jugular vein was cannulated for administering the substance, and the other for administering Big-ET-1. […] Five minutes later, 0.5 nmol/kg Big-ET-1 was infused over a period of one minute. SAP, DAP, and heart rate were measured before administration of the substance, then before administration of Big-ET, and subsequently every five minutes after Big-ET administration over a period of 30 minutes using the pressure transducer in known manner. The maximum Big-ET-induced increase in blood pressure was calculated from the measured values as the difference between the value measured at the moment of maximum development of the Big-ET action (typically after 5 min) and the value measured before Big-ET infusion. The dose at which the pressor effect of Big-ET was suppressed by 50% (ID50) was estimated from the inhibitory effects observed over the range of dosages tested (n>5 rats for each dose).
The intravenous potency of the test compounds of Formula I (given as ID50 values) to inhibit the maximal SAP response to Big ET in anesthetized rats is set forth in the following Table 3b: […]

[3] = system: formation of ET-1 from Big-ET-1; assay: In vivo inhibition of the Big-ET-1-induced blood pressure increase in anaesthetised rats, i.v. single dose; set-up: species or system Rats (Sprague-Dawley); details: Rattus norvegicus, iv, 5 min before 0.5 nmol/kg Big-ET-1, negative values indicate inhibition, read-out: % substance-related inhibition of the maximum Big-ET effect on SAP vs. control; for change in vivo at 10 µmol/kg: 10 μmol/kg; for change in vivo at 3 µmol/kg: 3 μmol/kg
Text: 3. In Vivo Investigation of the Inhibitory Action of the Substances on the Formation of ET-1 from Big-ET-1 in Rats
ET-1 is an endogenous substance with strong vasoconstrictive effect. An increase in the ET-1 level results in an increase in blood pressure. Upon infusion of Big-ET-1, an increase in blood pressure takes place to the extent that ET-1 is produced therefrom by enzyme-catalysed cleavage of Big-ET-1. As a measurement of the enzyme-inhibiting action of the substances, their inhibitory action on the increase in blood pressure induced by infusion of Big-ET-1 was determined.
Rats (Sprague-Dawley, CRLD=Charles River) were anaesthetised with 1 ml/kg Rompun/Ketavet 1:1. A pressure transducer (Statham) was inserted into the carotid artery to measure blood pressure. One jugular vein was cannulated for administering the substance, and the other for administering Big-ET-1. After a 20-minute equilibration phase, the rats were administered the corresponding test substance of Formula I at a dose of as a rule 10 μmol/kg (if not stated otherwise), or a vehicle. Five minutes later, 0.5 nmol/kg Big-ET-1 was infused over a period of one minute. The systolic (SAP=systolic arterial pressure) and the diastolic (DAP=diastolic arterial pressure) blood pressure and the heart rate were each measured before administration of the substance, then immediately before administration of Big-ET and in each case every five minutes over a period of 30 minutes after Big-ET administration using the pressure transducer in known manner. The maximum Big-ET-induced increase in blood pressure and the maximum lowering of heart rate were calculated from the measured values as the difference between the value measured at the moment of maximum development of the Big-ET action (typically after 5 min.) and the value measured before Big-ET infusion. Furthermore, the integral of the blood pressure curve under the influence of Big-ET-1 was determined over 30 minutes (AUC=area under the curve).
The percentage inhibition of the maximum Big-ET-1 effect on the systolic arterial blood pressure (SAP) after i.v. administration of the test substances compared with administration of a vehicle is set forth in the following Table 3a:
Data given in table 3a as negative values indicate an inhibitory effect.

[4] = target: T2, soluble, human recombinant NEP (Homo sapiens, UniProt P08473); assay: In-vitro investigation of the NEP inhibitory action (fluorescence-quenched Big-ET-1 analogue, HPLC); format: biochemical
T2 construct: soluble, human recombinant NEP; purchased Prof; Crine, University of Montreal, Canada
Protocol: 1. In-Vitro Investigation of the NEP Inhibitory Action of the Substances
In this test, the measure of the inhibitory activity of the substances which was determined was their IC50 value. The IC50 value of a test substance having enzyme-inhibitory activity is that concentration of the test substance at which 50% of the enzymatic activity of the NEP is blocked.
70 μl test buffer, 10 μl enzyme working solution and 10 μl test substance solution were mixed in an Eppendorf vessel and preincubated at 37° C. for 15 minutes (=min.). Then 10 μl substrate stock solution was added and the test batch was incubated for 60 minutes at 37° C. The enzymatic reaction was then ended by 5-minutes' heating to 95° C. After centrifugation (Heraeus Biofuge B, 3 min.), the liquid supernatant was investigated by HPLC in accordance with the following specifications.
The substrate was separated from cleavage products by means of reversed-phase HPLC (CC 125/4 Nucleosil 300/5 C18 RP column with CC 8/4 Nucleosil 100/5 C18 precolumn, from Macherey-Nagel, Düren, Germany). For this, 60 μl of the test mixture was injected into the HPLC sample injection point and the column was then eluted at a flow rate of 1 ml/min with the following gradient:
Mobile Phase B: 100% acetonitrile+0.5M H3PO4
All the peptides were detected by absorption at 214 nm and by fluorescence with an excitation wavelength of 328 nm and an emission wavelength of 393 nm.
Upon enzymatic cleavage of the peptide, the fluorophore (=Mca) and the quencher end up in different peptide fragments, which reduces the effectiveness of the quench. […] The increasing fluorescence signal (corresponds to the area, A) of the HPLC peak of the peptide with the non-quenched Mca fluorophore is used for the further calculations. This signal was compared for samples with (=Ainhib) and without (=Acontrol) test substance of Formula I, and the value “% inhibition” was calculated on the basis of the respective peak areas according to the following formula: % inhibition=100*(1−Ainhib/Acontrol)
All the samples were measured in duplicates and average values were calculated therefrom. A standard inhibitor (10 nM thiorphan) and a solvent control (0.1% DMSO) were likewise measured as quality controls on each run. In this test model the test substances of Formula I listed in the following Table 1 had the IC50 values given below: […]

[5] = Plasma protein binding, equilibrium dialysis, human plasma; format: in vitro ADME; details: human plasma (10% for routine testing), 37° C., pH 7.4, 10% plasma (100% for low binders), read-out: % bound (human plasma) (converted)
Protocol: (§1) Plasma protein binding of the test substances of Formula I was measured using a validated equilibrium dialysis method. The dialysis cells consisted of two halves separated by a semi-permeable membrane slightly tensioned in between. […] Before being used, the membranes were re-hydrated by soaking in water followed by the dialysis buffer. Plasma (10% for routine testing, and 100% for compounds found to have a low protein binding) was heated to 37° C. and adjusted to pH 7.4 before use. 5 μM test compound solutions (final dimethylsulfoxide concentration 0.5%) were prepared in isotonic phosphate buffer containing rat or human plasma. The plasma-containing solution was on one side of the membrane, and the plasma-free on the other. Incubations were performed overnight (10% plasma assay), or for 2 hours (100% plasma assay) in triplicate. The cells were mounted in a drive unit that rotated the cells and ensured a uniform equilibrium was obtained. The equilibrium was temperature controlled by the drive unit being immersed in a water bath at 37° C. At the end of the equilibration time, the cells were emptied. The solutions for each batch of compounds were combined into two groups (plasma-free and plasma-containing) then cassette analysed by LC-MS/MS using two sets of calibration standards for plasma-free (7 points) and plasma-containing solutions (6 points). The percentage of protein bound compound was calculated as follows: [formula] PC=sample concentration in protein containing side; PF=sample concentration in protein free side;

[6] = Plasma protein binding, equilibrium dialysis, rat plasma; format: in vitro ADME; details: rat plasma (10% for routine testing), 37° C., pH 7.4, 10% plasma (100% for low binders), read-out: % bound (rat plasma) (converted)
Protocol: as §1

T2 sequence (P08473 52-750 limits assumed): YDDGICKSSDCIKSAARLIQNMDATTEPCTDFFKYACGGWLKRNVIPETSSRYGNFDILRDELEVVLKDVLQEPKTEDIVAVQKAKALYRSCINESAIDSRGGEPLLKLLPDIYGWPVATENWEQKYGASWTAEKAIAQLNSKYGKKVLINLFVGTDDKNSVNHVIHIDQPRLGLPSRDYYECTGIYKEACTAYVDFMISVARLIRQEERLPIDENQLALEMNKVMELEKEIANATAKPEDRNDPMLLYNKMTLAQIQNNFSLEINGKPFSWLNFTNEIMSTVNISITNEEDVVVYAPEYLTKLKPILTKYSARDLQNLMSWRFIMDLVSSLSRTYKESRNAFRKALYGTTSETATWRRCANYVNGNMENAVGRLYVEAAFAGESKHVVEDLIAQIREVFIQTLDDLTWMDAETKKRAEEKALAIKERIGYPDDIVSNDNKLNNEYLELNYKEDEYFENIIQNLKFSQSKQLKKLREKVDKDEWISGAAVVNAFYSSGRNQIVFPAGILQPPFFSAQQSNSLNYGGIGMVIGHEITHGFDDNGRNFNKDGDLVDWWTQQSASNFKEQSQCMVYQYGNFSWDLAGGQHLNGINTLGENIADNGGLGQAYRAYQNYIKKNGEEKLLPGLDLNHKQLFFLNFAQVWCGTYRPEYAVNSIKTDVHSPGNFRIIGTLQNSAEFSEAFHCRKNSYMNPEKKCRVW

IC50 [1] [nM] | IC50 [4] [nM] | fraction unbound at 5 μM [5] | fraction unbound at 5 μM [6] | SMILES | ED50 [2] [µmol/kg] | change in vivo at 10 µmol/kg [3] [%] | change in vivo at 3 µmol/kg [3] [%]
12 | 15 | – | – | CCN(CCCN)C(=O)CC(CC1(C(=O)NC2CCc3ccccc3N(CC(=O)O)C2=O)CCCC1)C(=O)O (racemic) [Example 67, 4-[(3-aminopropyl)(ethyl)amino]-2-{[1-({[1-(carboxymethyl)-2-oxo-2,3,4,5-tetrahydro-1H-1-benzazepin-3-yl]amino}carbonyl)cyclopentyl]methyl}-4-oxobutanoic acid] | 0.5 | -109 | –
– | – | – | – | CNCCN(C)C(=O)CC(CC1(C(=O)NC2CCc3ccccc3N(CC(=O)O)C2=O)CCCC1)C(=O)O (racemic) [Example 68, 2-{[1-({[1-(carboxymethyl)-2-oxo-2,3,4,5-tetrahydro-1H-1-benzazepin-3-yl]amino}carbonyl)cyclopentyl]methyl}-4-{methyl[2-(methylamino)ethyl]amino}-4-oxobutanoic acid] | 0.7 | -108 | –
– | – | – | – | CN(CCCCN)C(=O)CC(CC1(C(=O)NC2CCc3ccccc3N(CC(=O)O)C2=O)CCCC1)C(=O)O (racemic) [Example 75, 4-[(4-aminobutyl)(methyl)amino]-2-{[1-({[1-(carboxymethyl)-2-oxo-2,3,4,5-tetrahydro-1H-1-benzazepin-3-yl]amino}carbonyl)cyclopentyl]methyl}-4-oxobutanoic acid] | 0.1 | – | -52
– | – | – | – | CN(CCCCCN)C(=O)CC(CC1(C(=O)NC2CCc3ccccc3N(CC(=O)O)C2=O)CCCC1)C(=O)O (racemic) [Example 78, 4-[(5-aminopentyl)(methyl)amino]-2-{[1-({[1-(carboxymethyl)-2-oxo-2,3,4,5-tetrahydro-1H-1-benzazepin-3-yl]amino}carbonyl)cyclopentyl]methyl}-4-oxobutanoic acid] | < 1 | – | -82
– | 9 | 0.6 | 0.31 | CC(C)N(C)C(=O)CC(CC1(C(=O)N[C@H]2CCc3ccccc3N(CC(=O)O)C2=O)CCCC1)C(=O)O (single isomer, unassigned) [Example 63] | 0.08 | – | –
– | – | – | – | CCOC(=O)C(CC(=O)NCCCO)CC1(C(=O)N[C@H]2CCc3ccccc3N(CC(=O)O)C2=O)CCCC1 (stereo in doubt) [Example 8] | 0.2 | -113 | –

— patent US20080085889A1, “Amidomethyl-Substituted 1-(Carboxyalkyl) Cyclopentyl-Carbonylamino-Benzazepine-N-Acetic Acid Compounds, Process and Intermediate Products for Their Preparation and Pharmaceutical Compositions Containing Them” (SOLVAY PHARMACEUTICALS GmbH, priority 2003, published 2008)
